System: placenta
Assay: Placental histopathology
Format: in vivo, mouse (CD-1)
Procedure: Dam livers, kidneys, and placentas were trimmed and embedded by the NIEHS Mouse Embryo Phenotyping Core. Tissues collected at necropsy were fixed in 4% PFA for 72 h and paraffin embedded, and 5-μm sections were prepared and stained with hematoxylin and eosin (H&E). Pathology was evaluated and a pathology review conducted by S.A.E. Diplomate American College of Veterinary Pathologists (DACVP). Pathology reviews were conducted as an informed approach analysis [e.g., nonblinded analysis; see Sills et al. ([2019])]. Select tissue slides were scanned using the AT2 Scanner (Aperio). Images were then captured for publication using the ImageScope software; version 12.3.0.5056 (Aperio). Serum and urine obtained from dams in Block 2 were analyzed using the AU480 clinical chemistry analyzer (Beckman Coulter Inc.). Reagents and calibration standards used to measure alkaline phosphatase (ALP), alanine aminotransferase (ALT), aspartate aminotransferase (AST), blood urea nitrogen (BUN), serum creatinine, urine creatinine, glucose (Glu), total protein (TP), triglyceride (Trig), high-density lipoprotein (HDL), cholesterol (Chol), and albumin (ALB) were purchased from Beckman Coulter Inc. Reagents for sorbitol dehydrogenase (SDH), total bile acid (TBA), and micro-TP were purchased from Sekisui Diagnostics. The reagent used to measure low-density lipoprotein (LDL) was purchased form Diazyme Laboratories.
Histopathological lesions of evaluated placenta were evaluated using two statistical approaches. The first approach assumed the absence of litter effects and considered each placenta evaluated within a treatment group to be a totally independent observation, regardless of its litter of origin. […] The second approach considered the litter as the biological unit and compared the relative incidence of placental lesions [e.g., percent within normal limits (WNL)] to adjust for differences in the total number of observations across litters within and between treatment groups. […] Both approaches were subjected to simultaneous tests for general linear hypotheses to correct for multiple comparisons using Tukey contrasts in the package multcomp ([Hothorn et al. 2009]).

O=C(O)C(F)(F)C(F)(F)C(F)(F)C(F)(F)C(F)(F)C(F)(F)C(F)(F)F [PFOA, Perfluorooctanoic acid]
Early fibrin clot: % (E11.5, 1 mg/kg/d): 0% | Early fibrin clot: No. (E11.5, 1 mg/kg/d): 0 | Labyrinth atrophy: % (E11.5, 1 mg/kg/d): 0% | Labyrinth atrophy: No. (E11.5, 1 mg/kg/d): 0 | Labyrinth congestion: % (E11.5, 1 mg/kg/d): 0% | Labyrinth congestion: No. (E11.5, 1 mg/kg/d): 0 | Labyrinth necrosis: % (E11.5, 1 mg/kg/d): 0% | Labyrinth necrosis: No. (E11.5, 1 mg/kg/d): 0 | Mean WNL per litter (%) (E11.5, 1 mg/kg/d): 98.0% | Mean WNL ± SD per litter (E11.5, 1 mg/kg/d): 6.4 ± 1.9 | Mean abnormal per litter (%) (E11.5, 1 mg/kg/d): 2.0% | Mean abnormal ± SD per litter (E11.5, 1 mg/kg/d): 0.2 ± 0.4 | Other placental lesions: % (E11.5, 1 mg/kg/d): 3.0% | Other placental lesions: No. (E11.5, 1 mg/kg/d): 1 | Placental nodule: % (E11.5, 1 mg/kg/d): 0% | Placental nodule: No. (E11.5, 1 mg/kg/d): 0 | Placentas WNL: % (E11.5, 1 mg/kg/d): 97.0% | Placentas WNL: No. (E11.5, 1 mg/kg/d): 32 | Placentas abnormal: % (E11.5, 1 mg/kg/d): 3.0% | Placentas abnormal: No. (E11.5, 1 mg/kg/d): 4 | Early fibrin clot: % (E11.5, 5 mg/kg/d): 0% | Early fibrin clot: No. (E11.5, 5 mg/kg/d): 0 | Labyrinth atrophy: % (E11.5, 5 mg/kg/d): 8.3% | Labyrinth atrophy: No. (E11.5, 5 mg/kg/d): 3 | Labyrinth congestion: % (E11.5, 5 mg/kg/d): 0% | Labyrinth congestion: No. (E11.5, 5 mg/kg/d): 0 | Labyrinth necrosis: % (E11.5, 5 mg/kg/d): 2.7% | Labyrinth necrosis: No. (E11.5, 5 mg/kg/d): 1 | Mean WNL per litter (%) (E11.5, 5 mg/kg/d): 88.3% | Mean WNL ± SD per litter (E11.5, 5 mg/kg/d): 6.4 ± 1.7 | Mean abnormal per litter (%) (E11.5, 5 mg/kg/d): 11.7% | Mean abnormal ± SD per litter (E11.5, 5 mg/kg/d): 1.0 ± 1.4 | Other placental lesions: % (E11.5, 5 mg/kg/d): 0% | Other placental lesions: No. (E11.5, 5 mg/kg/d): 0 | Placental nodule: % (E11.5, 5 mg/kg/d): 0% | Placental nodule: No. (E11.5, 5 mg/kg/d): 0 | Placentas WNL: % (E11.5, 5 mg/kg/d): 88.9% | Placentas WNL: No. (E11.5, 5 mg/kg/d): 32 | Placentas abnormal: % (E11.5, 5 mg/kg/d): 11.1% | Placentas abnormal: No. (E11.5, 5 mg/kg/d): 4 | Early fibrin clot: % (E17.5, 1 mg/kg/d): 0% | Early fibrin clot: No. (E17.5, 1 mg/kg/d): 0 | Labyrinth atrophy: % (E17.5, 1 mg/kg/d): 0% | Labyrinth atrophy: No. (E17.5, 1 mg/kg/d): 0 | Labyrinth congestion: % (E17.5, 1 mg/kg/d): 0% | Labyrinth congestion: No. (E17.5, 1 mg/kg/d): 0 | Labyrinth necrosis: % (E17.5, 1 mg/kg/d): 3.1% | Labyrinth necrosis: No. (E17.5, 1 mg/kg/d): 1 | Mean WNL per litter (%) (E17.5, 1 mg/kg/d): 91.4% | Mean WNL ± SD per litter (E17.5, 1 mg/kg/d): 5.8 ± 1.3 | Mean abnormal per litter (%) (E17.5, 1 mg/kg/d): 8.6% | Mean abnormal ± SD per litter (E17.5, 1 mg/kg/d): 0.6 ± 0.9 | Other placental lesions: % (E17.5, 1 mg/kg/d): 0% | Other placental lesions: No. (E17.5, 1 mg/kg/d): 0 | Placental nodule: % (E17.5, 1 mg/kg/d): 6.3% | Placental nodule: No. (E17.5, 1 mg/kg/d): 2 | Placentas WNL: % (E17.5, 1 mg/kg/d): 90.6% | Placentas WNL: No. (E17.5, 1 mg/kg/d): 29 | Placentas abnormal: % (E17.5, 1 mg/kg/d): 9.4% | Placentas abnormal: No. (E17.5, 1 mg/kg/d): 3 | Early fibrin clot: % (E17.5, 5 mg/kg/d): 2.5% | Early fibrin clot: No. (E17.5, 5 mg/kg/d): 1 | Labyrinth atrophy: % (E17.5, 5 mg/kg/d): 7.5% | Labyrinth atrophy: No. (E17.5, 5 mg/kg/d): 3 | Labyrinth congestion: % (E17.5, 5 mg/kg/d): 57.5% | Labyrinth congestion: No. (E17.5, 5 mg/kg/d): 23 | Labyrinth necrosis: % (E17.5, 5 mg/kg/d): 0% | Labyrinth necrosis: No. (E17.5, 5 mg/kg/d): 0 | Mean WNL per litter (%) (E17.5, 5 mg/kg/d): 38.1% | Mean WNL ± SD per litter (E17.5, 5 mg/kg/d): 2.2 ± 2.7 | Mean abnormal per litter (%) (E17.5, 5 mg/kg/d): 61.9% | Mean abnormal ± SD per litter (E17.5, 5 mg/kg/d): 4.5 ± 3.8 | Other placental lesions: % (E17.5, 5 mg/kg/d): 0% | Other placental lesions: No. (E17.5, 5 mg/kg/d): 0 | Placental nodule: % (E17.5, 5 mg/kg/d): 0% | Placental nodule: No. (E17.5, 5 mg/kg/d): 0 | Placentas WNL: % (E17.5, 5 mg/kg/d): 32.5% | Placentas WNL: No. (E17.5, 5 mg/kg/d): 13 | Placentas abnormal: % (E17.5, 5 mg/kg/d): 67.5% | Placentas abnormal: No. (E17.5, 5 mg/kg/d): 27 | Lowest dose tested resulting in adverse placental pathology (this study): 5 mg/kg/d
